Experimental findings from ChEMBL document CHEMBL3046844, “Synthesis of novel 4-thiazolidione derivatives as antibacterial agents against drug-resistant Staphylococcus epidermidis” (2013) are described below.

Values after ≈ are worked out from the molar mass of the structure shown.

Holding throughout (format): functional
Test [1] relates to Staphylococcus epidermidis. In words: Antibacterial activity against methicillin-resistant Staphylococcus epidermidis 8354 clinical isolate assessed as growth inhibition after 12 hr by CLSI broth microdilution method. As to conditions: Staphylococcus epidermidis, 8354, 12 h.
Test [2] relates to Staphylococcus epidermidis. In words: Antibacterial activity against methicillin-resistant Staphylococcus epidermidis 8311 clinical isolate assessed as growth inhibition after 12 hr by CLSI broth microdilution method. As to conditions: Staphylococcus epidermidis, 8311, 12 h. (In general: Broth dilution looks for growth in wells or tubes with falling amounts of substance.)
Test [3] has as its system Staphylococcus aureus. The test is described as follows: Antibacterial activity against methicillin-resistant Staphylococcus aureus 8166 clinical isolate assessed as growth inhibition after 12 hr by CLSI broth microdilution method. As to conditions: Staphylococcus aureus, 8166, 12 h.
The test system of test [4] is Staphylococcus aureus. The test is described as follows: Antibacterial activity against methicillin-resistant Staphylococcus aureus 8282 clinical isolate assessed as growth inhibition after 12 hr by CLSI broth microdilution method. As to conditions: Staphylococcus aureus, 8282, 12 h.
The test system of a further test is Salmonella. In words: Antibacterial activity against Salmonella assessed as growth inhibition after 12 hr by CLSI broth microdilution method.
The next test has as its system Escherichia coli. The test is described as follows: Antibacterial activity against Escherichia coli ATCC 25922 assessed as growth inhibition after 12 hr by CLSI broth microdilution method. As to conditions: ATCC 25922, 12 h.
The subject of test [5] is Staphylococcus epidermidis. In words: Antibacterial activity against Staphylococcus epidermidis RP62A assessed as growth inhibition after 12 hr by CLSI broth microdilution method.

What is called MIC is the least concentration at which growth counts as inhibited. On to `O=C(O)COc1ccc(/C=C2/S/C(=N\c3ccccc3Cl)N(c3ccccc3Cl)C2=O)cc1`, for which the MIC in test [1] was 3.13 µM (≈ 1.56 µg/mL); in test [2], 3.13 µM (≈ 1.56 µg/mL); with Staphylococcus aureus [3], 12.5 µM (≈ 6.24 µg/mL); in the test on Staphylococcus aureus [4], 3.13 µM (≈ 1.56 µg/mL); in the test on Salmonella it was greater than 200 µM; in the test with Escherichia coli it was greater than 200 µM. For the same compound, the MIC in test [5] was found to be 3.13 µM (≈ 1.56 µg/mL).
As to `O=C(O)COc1ccc(/C=C2/S/C(=N\c3ccc(F)cc3)N(c3ccc(F)cc3)C2=O)cc1`, the figures for the MIC (in the test with Salmonella; with Escherichia coli; in test [5]) were greater than 200 µM, greater than 200 µM and 25 µM (≈ 11.7 µg/mL), respectively.
Turning to `O=C(O)COc1ccc(/C=C2/S/C(=N\c3ccc(Br)cc3)N(c3ccc(Br)cc3)C2=O)cc1`, the MIC in test [1] is 3.13 µM (≈ 1.84 µg/mL); in test [2] it was 3.13 µM (≈ 1.84 µg/mL); in the test with Staphylococcus aureus [3] it was 6.25 µM (≈ 3.68 µg/mL); with Staphylococcus aureus [4], 3.13 µM (≈ 1.84 µg/mL); in the test on Salmonella, greater than 200 µM; in the test on Escherichia coli, greater than 200 µM. Moreover, the MIC in test [5] was found to be 3.13 µM (≈ 1.84 µg/mL).
As to `O=C(O)COc1ccc(/C=C2/S/C(=N\c3cccc(Cl)c3)N(c3cccc(Cl)c3)C2=O)cc1`, the minimum inhibitory concentration (MIC) in test [1] is 3.13 µM (≈ 1.56 µg/mL); in test [2], 3.13 µM (≈ 1.56 µg/mL); in the test on Staphylococcus aureus [3], 12.5 µM (≈ 6.24 µg/mL); in the test on Staphylococcus aureus [4], 3.13 µM (≈ 1.56 µg/mL); with Salmonella, greater than 200 µM; in the test with Escherichia coli, greater than 200 µM. Also, the MIC in test [5] is 3.13 µM (≈ 1.56 µg/mL).
With `O=C(O)COc1ccc(/C=C2/S/C(=N\c3ccc(Cl)cc3)N(c3ccc(Cl)cc3)C2=O)cc1`, the MIC in test [1] was 1.57 µM (≈ 0.784 µg/mL); in test [2] it was 1.57 µM (≈ 0.784 µg/mL); in the test with Staphylococcus aureus [3], 6.25 µM (≈ 3.12 µg/mL); in the test on Staphylococcus aureus [4] it was 3.13 µM (≈ 1.56 µg/mL); in the test with Salmonella it was greater than 200 µM; in the test on Escherichia coli it was greater than 200 µM. Besides, the MIC in test [5] came to 1.57 µM (≈ 0.784 µg/mL).
In the case of `COc1cc(/C=C2/S/C(=N\c3ccc(Cl)cc3)N(c3ccc(Cl)cc3)C2=O)ccc1OCC(=O)O`, the MIC in the test with Salmonella was greater than 200 µM; with Escherichia coli, greater than 200 µM; in test [5], 6.25 µM (≈ 3.31 µg/mL).
On to `O=C(O)COc1cccc(/C=C2/S/C(=N\c3ccc(Cl)cc3)N(c3ccc(Cl)cc3)C2=O)c1`, for which the minimum inhibitory concentration (MIC) was greater than 200 µM in the test on Salmonella, greater than 200 µM in the test on Escherichia coli and 25 µM (≈ 12.5 µg/mL) in test [5].
`CCc1ccccc1/N=C1\S/C(=C/c2ccc(OCC(=O)O)c(OC)c2)C(=O)N1c1ccccc1CC`: the MIC in the test with Salmonella is greater than 200 µM; in the test with Escherichia coli, greater than 200 µM; in test [5] it was 50 µM (≈ 25.8 µg/mL).
Take `O=C(O)c1ccc(/C=C2/S/C(=N\c3ccccc3)N(c3ccccc3)C2=O)cc1`: the results for the MIC (with Salmonella; in the test with Escherichia coli; in test [5]) were greater than 200 µM, greater than 200 µM and 50 µM (≈ 20 µg/mL), respectively.
As for `O=C(O)c1ccc(/C=C2/S/C(=N\c3ccc(F)cc3)N(c3ccc(F)cc3)C2=O)cc1`, the MIC is greater than 200 µM in the test on Salmonella, greater than 200 µM in the test with Escherichia coli and 25 µM (≈ 10.9 µg/mL) in test [5].
Take `O=C(O)c1ccc(/C=C2/S/C(=N\c3ccc(Br)cc3)N(c3ccc(Br)cc3)C2=O)cc1`: the MIC in the test on Salmonella was greater than 200 µM; in the test on Escherichia coli it was greater than 200 µM; in test [5], 12.5 µM (≈ 6.98 µg/mL).
Take `O=C(O)c1ccc(/C=C2/S/C(=N\c3ccc(Cl)cc3)N(c3ccc(Cl)cc3)C2=O)cc1`: the MIC is 3.13 µM (≈ 1.47 µg/mL) in test [1]; 3.13 µM (≈ 1.47 µg/mL) in test [2]; 12.5 µM (≈ 5.87 µg/mL) with Staphylococcus aureus [3]; 3.13 µM (≈ 1.47 µg/mL) with Staphylococcus aureus [4]; greater than 200 µM in the test with Salmonella; greater than 200 µM in the test with Escherichia coli. In addition, the MIC in test [5] was 3.13 µM (≈ 1.47 µg/mL).
Take `O=C(O)c1ccc(COc2ccc(/C=C3/S/C(=N\c4ccc(Cl)cc4)N(c4ccc(Cl)cc4)C3=O)cc2)cc1`: the MIC (with Salmonella; in the test with Escherichia coli; in test [5]) was greater than 200 µM in each case.
As to `O=C(O)COc1ccc(/C=C2/S/C(=N\c3ccccc3)N(c3ccccc3)C2=O)cc1`, the MIC with Salmonella was greater than 200 µM; in the test on Escherichia coli, greater than 200 µM; in test [5], 100 µM (≈ 43 µg/mL).
Consider `CC1(C)S[C@@H]2[C@H](NC(=O)[C@H](N)c3ccccc3)C(=O)N2[C@H]1C(=O)O` [AMPICILLIN], for which the MIC in the test on Salmonella is greater than 200 µM; in the test on Escherichia coli it was greater than 200 µM; in test [5], 11.5 µM (≈ 4.02 µg/mL).
Take `C[C@H]1COc2c(N3CCN(C)CC3)c(F)cc3c(=O)c(C(=O)O)cn1c23` [LEVOFLOXACIN]: the MIC (in test [1]; in test [2]; in the test with Staphylococcus aureus [3]; with Staphylococcus aureus [4]) was 22.1 µM (≈ 7.99 µg/mL) each time.
`COc1cccc(OC)c1C(=O)N[C@@H]1C(=O)N2[C@@H]1SC(C)(C)[C@@H]2C(=O)O` [METHICILLIN]: the MIC in test [1] was 65.7 µM (≈ 25 µg/mL); in test [2], 65.7 µM (≈ 25 µg/mL); with Staphylococcus aureus [3], 65.7 µM (≈ 25 µg/mL); in the test with Staphylococcus aureus [4], 65.7 µM (≈ 25 µg/mL); in the test with Salmonella it was greater than 200 µM; in the test on Escherichia coli it was greater than 200 µM. Further, the MIC in test [5] is 5.26 µM (≈ 2 µg/mL).
